Values quoted from earlier work as cited in US20200038414A1, “METHODS OF TREATING CONSTIPATION USING AMINOSTEROL COMPOSITIONS” (Enterin, Inc., priority 2018, published 2020).

Assays:
[1] = tested on: PD population with constipation; details: short term placebo controlled trial in PD; loose stools/diarrhea in place of constipation; cited from earlier work
[2] = tested on: C. elegans model of PD; details: C. elegans model; cited from earlier work
[3] = following systemic administration, in mice; into the duodenum through the biliary tract; cited from earlier work
[4] = tested on: mouse models of PD; details: several mouse models of PD; cited from earlier work

| Compound | share of treated patients in whom effective [1] | effect on muscle paralysis [2] | clearance and excretion [3] | effect on gastrointestinal dysmotility [4] |
| --- | --- | --- | --- | --- |
| CCCCC(F)(F)[C@@]1(O)CC[C@H]2[C@@H](CC(=O)[C@@H]2CCCCCCC(=O)O)O1 [Lubiprostone] | about 50% | – | – | – |
| CC(C)[C@@H](CC[C@@H](C)[C@H]1CC[C@H]2[C@@H]3[C@H](O)C[C@H]4C[C@@H](NCCCNCCCCN)CC[C@]4(C)[C@H]3CC[C@]12C)OS(=O)(=O)O [squalamine] | – | complete reversal of muscle paralysis | cleared by the liver and excreted as the intact molecule | reverse gastrointestinal dysmotility |
